“Also recorded” adds a separate entry of the source.
How the values were obtained:
[1] = Oxipres antioxidant efficacy value (EV) in fish meal; conditions: Oxipres 70° C., 5 bar O2, equimolar to BHT; EV relative to BHT (EV=1)
Experimental: (§1) Oxidative stability was assessed using an Oxipres (Mikrolab Aarhus A/S, Hojbjerg, Denmark). The ML OXIPRES® is designed to monitor the oxidation of heterogeneous products. Consumption of oxygen results in a pressure drop which is measured by means of pressure transducers. The samples are heated to accelerate the process and shorten the analysis time (Mikrolab Aarhus 2012).
(§2) Sample weights were 50 g. They were loaded into the Oxipres vessels and placed inside the stainless-steel pressure vessel and sealed. The pressure vessels were purged with pure oxygen and filled to an initial oxygen pressure of 5 bar and maintained at 70° C. during measurement (D. Ying, L. Edin, L. Cheng, L. Sanguansri, M. A. Augustin, LWT—Food Science and Technology 2015, 62, 1105-1111: “Enhanced oxidative stability of extruded product containing polyunsaturated oils.”).
(§3) The oxygen pressure was recorded as function of time. After sample load and temperature rise the pressure in the device is increasing within 10 hours up to the starting pressure. Thereafter it is decreasing. Consequently, the starting pressure is considered as being the pressure after 10 hours. The analysis ends after 130 hours at 70° C. The oxygen consumption ‘O2’ of the tested sample is calculated as follows: […]
(§4) A factor of protection called ‘EV’ (Efficacy Value) was developed to quantify with a relative number (relative to BHT) the antioxidant effect of the tested candidates. EV was calculated as follows:
(§5) EV, being relative to BHT (3,5-di-tert-butyl-4-hydroxy-toluene) (EV=1), makes it possible to compare the antioxidant compounds in a defined feed application.
(§6) Each of the compounds of formulae (1) to (6) were mixed into each matrix 1, 2 or 3 (pet food, poultry meal, fish meal) in an equimolar ratio compared to BHT. Batches of 200 g feed were produced in order to handle a minimum of 30 mg of antioxidant. First, a 1% pre-dilution of the antioxidant with the feed material was made. Then this pre-dilution was added to the final batch, mixed, sieved (1.25 mm sieve) and mixed using a turbula mixer. Thereafter 55 g of the final batch were packed into polyethylene bags, and stored at 4° C. until start of the Oxipres assay. Spare sample were stored at 4° C. Compound of formula (3) was measured in all three matrices. Compound of formula (1) was measured in matrix 1 and 2. Compound of formula (2) was measured in matrix 2. Compounds of formulae (4), (5) and (6) were measured in matrix 3. An efficacy value 0.7 has been considered as acceptable, an efficacy value ≥ the efficacy value of alpha-tocopherol as good, and an efficacy value ≥ the efficacy value of BHT as very good.

[2] = Oxipres antioxidant efficacy value (EV) in poultry meal; conditions: Oxipres 70° C., 5 bar O2, equimolar to BHT; EV relative to BHT (EV=1)
Experimental: as §1, §2, §3, §4, §5, §6

[3] = Oxipres antioxidant efficacy value (EV) in pet food; conditions: Oxipres 70° C., 5 bar O2, equimolar to BHT; EV relative to BHT (EV=1)
Experimental: as §1, §2, §3, §4, §5, §6

[4] = Oil Stability Index (OSI) in crude algal oil, Example 13; conditions: for OSI: Table 33, crude algal oil (contained about 1.6 mg/g MNT prior to use), 80° C.; for Protection Factor (%): Table 35, crude algal oil (80° C.)
Experimental: The compounds of formulae (3) and (7) were used in both fish and algal oils to see their antioxidant effect in these oils. Antioxidant effect was determined using mainly the Oil Stability Index (OSI).
(§7) Two concentration levels were used: 0.5 mg/g (low level) and 2 mg/g (high level), respectively, have been added to 5 g of oil and used in the Oxidative Stability Instrument operated at 80° C. with the continuous air flow rate at ˜40 psi. All samples were run in duplicate. The Protection Factors (PF) for each compound, as percentage, in oil were calculated as,
The Oil Stability Indices (OSI) of crude algal oil with levels of 0.5 mg/g and 2 mg/g of compounds of formulae (3) or (7) are shown in Table 33.

[5] = Storage stability in fish oil (PV, p-AV), Example 13; conditions: for Peroxide values (PV, meq/kg) / p-Anisidine value (p-AV): storage at 25° C.
Experimental: A storage stability study was performed to compare the variation of primary oxidation products, the hydroperoxides, generated during oxidation, measured in terms of peroxide value (PV) and the secondary oxidation products which were measured and determined as anisidine reactive substances or p-anisidine value (p-AV) of oil samples containing these compounds.
The two different concentrations of compounds of formulae (3) and (7) were used for the storage stability study. Each compound and MNT were added, each individually, to 40 g of fish oil samples in 60 ml amber bottles at 0.5 mg/g and 2 mg/g levels, thoroughly mixed and stored at ambient temperature for 19 days. All sample bottles were stored open to air, away from light. […] Peroxide values (PV) and p-anisidine values (p-AV) were determined at different times for 19 days.

Solubility in fish oil = format: physicochemical; conditions: fish oil, 0.5 and 2 mg/g; mixed around 40° C. to dissolve completely
Experimental: The compounds of formulae (4), (6), (8) and (9) were evaluated primarily for their oxidative stability by the Oil Stability Index (OSI) measurements. Two different levels of these antioxidants (0.5 and 2 mg/g) were used in 5 g of natural fish oil (Product code: FG30TG) and used in the Oxidative Stability Instrument at 80° C. with the air flow rate of 40 psi. The solubility of different amounts and types of antioxidants used in OSI was checked before and after the application. […]

[6] = Oil Stability Index (OSI) in fish oil, Example 13; conditions: for OSI: Table 28, FG30TG fish oil, 80° C.; for Protection Factor (%): Table 34, fish oil (80° C.)
Experimental: as §7, with “The compounds of formulae (3) and (7) were used in both fish and algal oils to see their antioxidant effect in these oils. Antioxidant effect was determined using mainly the Oil Stability Index (OSI). Two” for “Two”, “as, [formula]” for “as,”

Cc1cc(C(C)(C)C)c(O)c(C(C)(C)C)c1 [BHT, 3,5-di-tert-butyl-4-hydroxy-toluene, reference compound]
EV in Fish meal [1]: 1
EV in poultry meal [2]: 1
EV in pet food [3]: 1

Oc1ccc2c(c1)CCCO2 [Compound of formula (1), chroman-6-ol]
EV in poultry meal [2]: 1.12
EV in pet food [3]: 0.98

CC1(C)CCc2cc(O)ccc2O1 [Compound of formula (3), 2,2-dimethyl-chroman-6-ol]
OSI ([4]; 0.5 mg/g): 17.05 h
OSI ([4]; 2 mg/g): 18.63 h
Protection Factor (%) ([4]; 0.5 mg/g): 13.7%
Protection Factor (%) ([4]; 2 mg/g): 24.2%
level of secondary oxidation products (p-AV) during storage ([5]; 0.5 mg/g concentration): lowest level of secondary oxidation products (p-AV)
Peroxide values (PV, meq/kg) ([5]; 0.5 mg/g level, 1 day): 1 meq/kg
p-Anisidine value (p-AV) ([5]; 0.5 mg/g level, 1 day): 9.5
Peroxide values (PV, meq/kg) ([5]; 0.5 mg/g level, 5 days): 2 meq/kg
p-Anisidine value (p-AV) ([5]; 0.5 mg/g level, 5 days): 9.5
Peroxide values (PV, meq/kg) ([5]; 0.5 mg/g level, 8 days): 6.4 meq/kg
p-Anisidine value (p-AV) ([5]; 0.5 mg/g level, 8 days): 11.2
Peroxide values (PV, meq/kg) ([5]; 0.5 mg/g level, 14 days): 12.8 meq/kg
p-Anisidine value (p-AV) ([5]; 0.5 mg/g level, 14 days): 11.4
Peroxide values (PV, meq/kg) ([5]; 0.5 mg/g level, 19 days): 20.9 meq/kg
p-Anisidine value (p-AV) ([5]; 0.5 mg/g level, 19 days): 12.8
Peroxide values (PV, meq/kg) ([5]; 0.5 mg/g level, Initial): 1 meq/kg
p-Anisidine value (p-AV) ([5]; 0.5 mg/g level, Initial): 9.4
Peroxide values (PV, meq/kg) ([5]; 2 mg/g level, 1 day): 1 meq/kg
p-Anisidine value (p-AV) ([5]; 2 mg/g level, 1 day): 9.4
Peroxide values (PV, meq/kg) ([5]; 2 mg/g level, 5 days): 1.9 meq/kg
p-Anisidine value (p-AV) ([5]; 2 mg/g level, 5 days): 9.3
Peroxide values (PV, meq/kg) ([5]; 2 mg/g level, 8 days): 6.4 meq/kg
p-Anisidine value (p-AV) ([5]; 2 mg/g level, 8 days): 10.8
Peroxide values (PV, meq/kg) ([5]; 2 mg/g level, 14 days): 14.1 meq/kg
p-Anisidine value (p-AV) ([5]; 2 mg/g level, 14 days): 11.2
Peroxide values (PV, meq/kg) ([5]; 2 mg/g level, 19 days): 26.8 meq/kg
p-Anisidine value (p-AV) ([5]; 2 mg/g level, 19 days): 11.8
Peroxide values (PV, meq/kg) ([5]; 2 mg/g level, Initial): 1 meq/kg
p-Anisidine value (p-AV) ([5]; 2 mg/g level, Initial): 9.4
EV in Fish meal [1]: 0.96
EV in poultry meal [2]: 1.17
EV in pet food [3]: 0.95
Solubility in oil (Solubility in fish oil): not readily soluble in oil
OSI ([6]; 0.5 mg/g): 7.13 h
OSI ([6]; 2 mg/g): 7.48 h
Protection Factor (%) ([6]; 0.5 mg/g): 42.5%
Protection Factor (%) ([6]; 2 mg/g): 49.5%
antioxidant activity (OSI) in fish oil compared with MNT ([6]; fish oil, Example 13, 0.5 and 2 mg/g): slightly higher Oil Stability Indices than those of MNT; also recorded: comparable in activity with MNT

Cc1c(C)c2c(c(C)c1O)CC[C@@](C)(CCC[C@H](C)CCC[C@H](C)CCCC(C)C)O2 [alpha-tocopherol, reference compound]
EV in Fish meal [1]: 0.88
EV in poultry meal [2]: 0.74
EV in pet food [3]: 0.77

Source: patent US20210030022A1, “NOVEL USE OF SUBSTITUTED CHROMAN-6-OLS” (DSM IP ASSETS B.V., priority 2018, published 2021)
